According to the supplement of paper PMC11208160:

Assay: recombinant barcode read abundance after kanamycin selection (control-corrected) (log10(CPM+1)); higher = more efficient recombination; sequences stand for … in AGTGCAGAGAAAATCGGCCAGTTTTCTCTGCCTGCAGTCCGCATGCCGT…AGATTTATGCAGCGGACTGCCTTTCTCCCAAAGTGATAAACCGGACAGTATCATGGACCGGTTTTCCCGGTAATCCGTATTTGCAAGGTTGGTTTCACT; site = the 11-nt target
Procedure, shortened: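 A vector carrying a T7-inducible recombinase and the last 73 bp of the bridge RNA received, by Gibson cloning, oligos encoding a promoter, target, barcode and the first 104 bridge RNA bases under J23119. The pooled constructs entered E. coli together with a donor plasmid by electroporation. Selection used chloramphenicol/ampicillin/kanamycin with 0.1 mM IPTG, with chloramphenicol/ampicillin LB agar as the control, each in two replicates. Recombination efficiency is the averaged, control-corrected counts-per-million of barcodes at recombinant junctions, reported as log10(CPM+1).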
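Note: IS621 recombinase and bridge RNA in Escherichia coli cells.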

Row | Sequence | recombinant barcode read abundance (log10)
1 | TAGCATGCTTGGGTTCTAACCTGTTGCAT (site TAGCATGCTCT) | 0.204
2 | TAGCATGCTTGGGTTCTAACCTGTTGCAT (site TAGCATGCTGT) | 0.228
3 | TAGCATGCTTGGGTTCTAACCTGTTGCAT (site TAGCATGCTTT) | 0.065
4 | TAGCCATCTTGGGTTCTAACCTGTTGCTC (site TAGACATCTGA) | 0.0329
5 | TAGCCATCTTGGGTTCTAACCTGTTGCTC (site TAGCCATCTGA) | 0.508
6 | TAGCCATCTTGGGTTCTAACCTGTTGCTC (site TAGGCATCTGA) | 0.404
7 | TAGCCATCTTGGGTTCTAACCTGTTGCTC (site TAGTCATCTGA) | 0
8 | TAGCCTACTTGGGTTCTAACCTGTTGCGG (site TAGCCTACTAC) | 0.0228
9 | TAGCCTACTTGGGTTCTAACCTGTTGCGG (site TAGCCTACTCC) | 1.41
10 | TAGCCTACTTGGGTTCTAACCTGTTGCGG (site TAGCCTACTGC) | 0.0519
11 | TAGCCTACTTGGGTTCTAACCTGTTGCGG (site TAGCCTACTTC) | 0.00783
12 | TAGCCTGCTTGGGTTCTAACCTGTTGCCT (site TAGACTGCTAG) | 0.0305
13 | TAGCCTGCTTGGGTTCTAACCTGTTGCCT (site TAGCCTGCTAG) | 1.35
14 | TAGCCTGCTTGGGTTCTAACCTGTTGCCT (site TAGGCTGCTAG) | 0.026
15 | TAGCCTGCTTGGGTTCTAACCTGTTGCCT (site TAGTCTGCTAG) | 0.177
16 | TAGCGCACTTGGGTTCTAACCTGTTGCGG (site TAGCACACTCC) | 0.28
17 | TAGCGCACTTGGGTTCTAACCTGTTGCGG (site TAGCCCACTCC) | 0.076
18 | TAGCGCACTTGGGTTCTAACCTGTTGCGG (site TAGCGCACTCC) | 1.33
19 | TAGCGCACTTGGGTTCTAACCTGTTGCGG (site TAGCTCACTCC) | 0.13
20 | TAGCGGCCTTGGGTTCTAACCTGTTGCCT (site TAACGGCCTAG) | 0.651
21 | TAGCGGCCTTGGGTTCTAACCTGTTGCCT (site TACCGGCCTAG) | 0.0223
22 | TAGCGGCCTTGGGTTCTAACCTGTTGCCT (site TAGCGGCCTAG) | 0.428

Row | Sequence | recombinant barcode read abundance (log10)
23 | TAGCGGCCTTGGGTTCTAACCTGTTGCCT (site TATCGGCCTAG) | 0.0926
24 | TAGCGTACTTGGGTTCTAACCTGTTGCGT (site TAGCGTACTAC) | 0.805
25 | TAGCGTACTTGGGTTCTAACCTGTTGCGT (site TAGCGTACTCC) | 0.0572
26 | TAGCTCCCTTGGGTTCTAACCTGTTGCCC (site TAGCTCCCTAG) | 0.279
27 | TAGCTCCCTTGGGTTCTAACCTGTTGCCC (site TAGCTCCCTCG) | 0.115
28 | TAGCTCCCTTGGGTTCTAACCTGTTGCCC (site TAGCTCCCTGG) | 0.872
29 | TAGCTCCCTTGGGTTCTAACCTGTTGCCC (site TAGCTCCCTTG) | 0.0924
30 | TAGCTGACTTGGGTTCTAACCTGTTGCCC (site GTTTGACCTCC) | 0.136
31 | TAGCTGACTTGGGTTCTAACCTGTTGCCC (site TAGCTGACTGG) | 0.932
32 | TAGCTGTCTTGGGTTCTAACCTGTTGCGT (site AATCTGTCTAC) | 0.106
33 | TAGCTGTCTTGGGTTCTAACCTGTTGCGT (site TAGCTGTCTAC) | 2.29
34 | TAGGATACTTGGGTTCTAACCTGTTGCAC (site TAGGATACTAT) | 0.34
35 | TAGGATACTTGGGTTCTAACCTGTTGCAC (site TAGGATACTCT) | 0.729
36 | TAGGATACTTGGGTTCTAACCTGTTGCAC (site TAGGATACTGT) | 2.08
37 | TAGGATACTTGGGTTCTAACCTGTTGCAC (site TAGGATACTTT) | 0.107
38 | TAGGATACTTGGGTTCTAACCTGTTGCAG (site TAGGATACTAT) | 0.29
39 | TAGGATACTTGGGTTCTAACCTGTTGCAG (site TAGGATACTCT) | 2.5
40 | TAGGATACTTGGGTTCTAACCTGTTGCAG (site TAGGATACTGT) | 0.106
41 | TAGGATACTTGGGTTCTAACCTGTTGCAG (site TAGGATACTTT) | 0.351
42 | TAGGATACTTGGGTTCTAACCTGTTGCAT (site TAGGATACTAT) | 1.55
43 | TAGGATACTTGGGTTCTAACCTGTTGCAT (site TAGGATACTCT) | 0.583
44 | TAGGATACTTGGGTTCTAACCTGTTGCAT (site TAGGATACTGT) | 0.0987

Row | Sequence | recombinant barcode read abundance (log10)
45 | TAGGATACTTGGGTTCTAACCTGTTGCAT (site TAGGATACTTT) | 0.0945
46 | TAGGATACTTGGGTTCTAACCTGTTGCGT (site TAGGAAACTAC) | 0.314
47 | TAGGATACTTGGGTTCTAACCTGTTGCGT (site TAGGACACTAC) | 0.928
48 | TAGGATACTTGGGTTCTAACCTGTTGCGT (site TAGGAGACTAC) | 0.266
49 | TAGGATACTTGGGTTCTAACCTGTTGCGT (site TAGGATACTAC) | 3.02
50 | TAGGATCCTTGGGTTCTAACCTGTTGCGA (site ACCCGCTCTAG) | 0.205
51 | TAGGATCCTTGGGTTCTAACCTGTTGCGA (site TAGGATCCTTC) | 2.71
52 | TAGGATTCTTGGGTTCTAACCTGTTGCCT (site TAATATTCTAG) | 0.0335
53 | TAGGATTCTTGGGTTCTAACCTGTTGCCT (site TAGGATTCTAG) | 1.88
54 | TAGGCGCCTTGGGTTCTAACCTGTTGCCT (site TAGGCGCCTAA) | 0.173
55 | TAGGCGCCTTGGGTTCTAACCTGTTGCCT (site TAGGCGCCTAC) | 0.0375
56 | TAGGCGCCTTGGGTTCTAACCTGTTGCCT (site TAGGCGCCTAG) | 0.252
57 | TAGGCGCCTTGGGTTCTAACCTGTTGCCT (site TAGGCGCCTAT) | 0.235
58 | TAGGCTACTTGGGTTCTAACCTGTTGCAA (site TAGGCTACTAT) | 0.144
59 | TAGGCTACTTGGGTTCTAACCTGTTGCAA (site TAGGCTACTCT) | 0.0112
60 | TAGGCTACTTGGGTTCTAACCTGTTGCAA (site TAGGCTACTGT) | 1.49
61 | TAGGCTACTTGGGTTCTAACCTGTTGCAA (site TAGGCTACTTT) | 1.33
62 | TAGGCTACTTGGGTTCTAACCTGTTGCAC (site TAGGCTACTAT) | 0.147
63 | TAGGCTACTTGGGTTCTAACCTGTTGCAC (site TAGGCTACTCT) | 0.131
64 | TAGGCTACTTGGGTTCTAACCTGTTGCAC (site TAGGCTACTGT) | 1.19
65 | TAGGCTACTTGGGTTCTAACCTGTTGCAC (site TAGGCTACTTT) | 0.00761
66 | TAGGCTACTTGGGTTCTAACCTGTTGCCA (site ACCCAATCTGT) | 0.0662

Row | Sequence | recombinant barcode read abundance (log10)
67 | TAGGCTACTTGGGTTCTAACCTGTTGCCA (site TAGGCTACTTG) | 0.129
68 | TAGGCTCCTTGGGTTCTAACCTGTTGCAG (site TAGGCTCCTAT) | 0.271
69 | TAGGCTCCTTGGGTTCTAACCTGTTGCAG (site TAGGCTCCTCT) | 0.429
70 | TAGGCTCCTTGGGTTCTAACCTGTTGCAG (site TAGGCTCCTGT) | 0.0237
71 | TAGGCTCCTTGGGTTCTAACCTGTTGCAG (site TAGGCTCCTTT) | 0.0834
72 | TAGGCTGCTTGGGTTCTAACCTGTTGCCT (site TAGACTGCTAG) | 0.359
73 | TAGGCTGCTTGGGTTCTAACCTGTTGCCT (site TAGCCTGCTAG) | 0
74 | TAGGCTGCTTGGGTTCTAACCTGTTGCCT (site TAGGCTGCTAG) | 0.177
75 | TAGGCTGCTTGGGTTCTAACCTGTTGCCT (site TAGTCTGCTAG) | 0.519
76 | TAGGTTCCTTGGGTTCTAACCTGTTGCAT (site TAGGTACCTAT) | 0.795
77 | TAGGTTCCTTGGGTTCTAACCTGTTGCAT (site TAGGTCCCTAT) | 0.335
78 | TAGGTTCCTTGGGTTCTAACCTGTTGCAT (site TAGGTGCCTAT) | 0.6
79 | TAGGTTCCTTGGGTTCTAACCTGTTGCAT (site TAGGTTCCTAT) | 1.04
80 | TAGTACCCTTGGGTTCTAACCTGTTGCAT (site TAGTACCCTAT) | 0.43
81 | TAGTACCCTTGGGTTCTAACCTGTTGCAT (site TAGTACCCTCT) | 0.0976
82 | TAGTACCCTTGGGTTCTAACCTGTTGCAT (site TAGTACCCTGT) | 0.0568
83 | TAGTACCCTTGGGTTCTAACCTGTTGCAT (site TAGTACCCTTT) | 0.227
84 | TAGTAGTCTTGGGTTCTAACCTGTTGCCT (site TAGTAGTCTAA) | 0.0538
85 | TAGTAGTCTTGGGTTCTAACCTGTTGCCT (site TAGTAGTCTAC) | 0.0503
86 | TAGTAGTCTTGGGTTCTAACCTGTTGCCT (site TAGTAGTCTAG) | 1.64
